{"source": "patent US12312599B2", "about": "“Methods, compositions, and kits for producing beige adipocytes and treating metabolic disorders” (MaineHealth, priority 2018, dated 2025)", "experiment": "Activity of Y-27632 stock solutions", "assay_type": "physicochemical", "conditions": "water based versus DMSO stock", "method": "Note: Only use Y-27632 stock solutions that have been resuspended in DMSO. […] Conduct Mesoderm induction of iPSC in a laminar flow cabinet. • 3. Expand cells in NutriStem hPSC XF Medium overnight and change 100% of the medium without Y-27632 every 24 hours in a laminar flow cabinet for cell culture. When changing media, tilt plate up and allow media to pool at the bottom of wells. Aspirate the pooled medium without touching the surface of the plate. Replace with medium warmed to room temperature by pipetting 2 ml down the side of the wells. Cell Passaging • 1. Expand cell colonies until they have reached 70-80% confluence in high-density areas of the wells. High-density accumulation can occur along the edges of the well as well as the middle. Cells permitted to reach high density will lose their potential for differentiation after multiple passages. • 2. Prior to cell passage, warm cell wash buffer and NutriStem hPSC XF Medium to room temperature. Conduct cell passage in a laminar flow cabinet. • 3. Aspirate NutriStem hPSC XF Medium from wells with vacuum aspirator and wash with PBS without calcium or magnesium. Remove PBS and add 1 ml of ReLeSR reagent to side of well. Agitate plate to allow ReLeSR reagent to spread evenly on the surface. • 4. Aspirate ReLeSR reagent with vacuum aspirator after 30 seconds, which will leave behind a thin film of liquid. […]"}
{"smiles": "C[C@@H](N)[C@H]1CC[C@H](C(=O)Nc2ccncc2)CC1", "note": "[Y-27632]", "values": [{"measurement": "inhibitor activity of water based stock solutions", "value": "lose significant inhibitor activity"}]}
